Data reported in PubChem BioAssay AID2060902 (Molecular Pharmacology Branch, DTP, NCI, 2025).

System: 485368-065-R3-J5-PDC spheroids with HUVEC/MSC, viability
Assay: Anticancer human tumor 485368-065-R3-J5-PDC patient-derived pancreatic carcinoma cell line growth inhibition [RAS]
Conditions: for IC50: curve of first compound; for viability, T/C: stronger effect = lower value
Outline: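 Tumour cells grown as complex spheroids with HUVEC endothelial cells and mesenchymal stem cells, treated with RAS pathway inhibitor combinations. Each agent spans half-log steps from near clinical Cmax, or 10 microM where Cmax is unknown.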
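Further: spheroids exposed to agents for seven days before readout.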

CC(C)NCC(C(=O)N1CCN(c2ncnc3c2C(C)CC3O)CC1)c1ccc(Cl)cc1 (centres undefined) + CCn1c(-c2cccnc2C(C)OC)c2c3cc(ccc31)N1CCOC(CC(NC(=O)C(C(C)C)N(C)C(=O)C3(F)CCN(C(=O)C#CC(C)(C)N(C)C)CC3)C(=O)N3CCCC(N3)C(=O)OCC(C)(C)C2)C1
IC50 (second compound 0.000949 µM): > 10 µM | IC50 (second compound 0.003 µM): > 10 µM | IC50 (second compound 0.00949 µM): > 10 µM | IC50 (second compound 0.03 µM): > 10 µM | IC50 (second compound 0.0949 µM): > 10 µM | IC50 (second compound 0.3 µM): > 10 µM | viability, T/C (second compound 0.000949 µM, first compound 0.0316 µM): 102% | viability, T/C (second compound 0.000949 µM, first compound 0.1 µM): 99.4% | viability, T/C (second compound 0.000949 µM, first compound 0.316 µM): 95.9% | viability, T/C (second compound 0.000949 µM, first compound 1 µM): 79.9% | viability, T/C (second compound 0.000949 µM, first compound 3.16 µM): 74.6% | viability, T/C (second compound 0.000949 µM, first compound 10 µM): 55.8% | viability, T/C (second compound 0.003 µM, first compound 0.0316 µM): 88.7% | viability, T/C (second compound 0.003 µM, first compound 0.1 µM): 94% | viability, T/C (second compound 0.003 µM, first compound 0.316 µM): 93.8% | viability, T/C (second compound 0.003 µM, first compound 1 µM): 81.7% | viability, T/C (second compound 0.003 µM, first compound 3.16 µM): 81.4% | viability, T/C (second compound 0.003 µM, first compound 10 µM): 62.2% | viability, T/C (second compound 0.00949 µM, first compound 0.0316 µM): 95.7% | viability, T/C (second compound 0.00949 µM, first compound 0.1 µM): 103% | viability, T/C (second compound 0.00949 µM, first compound 0.316 µM): 97% | viability, T/C (second compound 0.00949 µM, first compound 1 µM): 87.6% | viability, T/C (second compound 0.00949 µM, first compound 3.16 µM): 76.8% | viability, T/C (second compound 0.00949 µM, first compound 10 µM): 66.1% | viability, T/C (second compound 0.03 µM, first compound 0.0316 µM): 89.1% | viability, T/C (second compound 0.03 µM, first compound 0.1 µM): 104% | viability, T/C (second compound 0.03 µM, first compound 0.316 µM): 88.4% | viability, T/C (second compound 0.03 µM, first compound 1 µM): 84.7% | viability, T/C (second compound 0.03 µM, first compound 3.16 µM): 70.2% | viability, T/C (second compound 0.03 µM, first compound 10 µM): 58.6% | viability, T/C (second compound 0.0949 µM, first compound 0.0316 µM): 99.9% | viability, T/C (second compound 0.0949 µM, first compound 0.1 µM): 104% | viability, T/C (second compound 0.0949 µM, first compound 0.316 µM): 89.5% | viability, T/C (second compound 0.0949 µM, first compound 1 µM): 80.7% | viability, T/C (second compound 0.0949 µM, first compound 3.16 µM): 69.8% | viability, T/C (second compound 0.0949 µM, first compound 10 µM): 56.2% | viability, T/C (second compound 0.3 µM, first compound 0.0316 µM): 98.7% | viability, T/C (second compound 0.3 µM, first compound 0.1 µM): 101% | viability, T/C (second compound 0.3 µM, first compound 0.316 µM): 90.7% | viability, T/C (second compound 0.3 µM, first compound 1 µM): 78.8% | viability, T/C (second compound 0.3 µM, first compound 3.16 µM): 70.3% | viability, T/C (second compound 0.3 µM, first compound 10 µM): 49.7%

CC(Nc1ccc2c(c1)OCCn1cc(N3C(=O)OCC3C(F)F)nc1-2)C(N)=O (centres undefined) + C=CC(=O)N1CCN(c2nc(OCC3CCCN3C)nc3c(F)c(-c4nc(N)cc(C)c4C(F)(F)F)c(Cl)cc23)C(C)C1
IC50 (second compound 0.00316 µM): > 10 µM | IC50 (second compound 0.01 µM): > 10 µM | IC50 (second compound 0.0316 µM): > 10 µM | IC50 (second compound 0.1 µM): 9.8 µM | IC50 (second compound 0.316 µM): > 10 µM | IC50 (second compound 1 µM): 4.99 µM | viability, T/C (second compound 0.00316 µM, first compound 0.0316 µM): 103% | viability, T/C (second compound 0.00316 µM, first compound 0.1 µM): 79.8% | viability, T/C (second compound 0.00316 µM, first compound 0.316 µM): 88.5% | viability, T/C (second compound 0.00316 µM, first compound 1 µM): 75.4% | viability, T/C (second compound 0.00316 µM, first compound 3.16 µM): 75.6% | viability, T/C (second compound 0.00316 µM, first compound 10 µM): 51.3% | viability, T/C (second compound 0.01 µM, first compound 0.0316 µM): 92.4% | viability, T/C (second compound 0.01 µM, first compound 0.1 µM): 86.9% | viability, T/C (second compound 0.01 µM, first compound 0.316 µM): 91.8% | viability, T/C (second compound 0.01 µM, first compound 1 µM): 72.8% | viability, T/C (second compound 0.01 µM, first compound 3.16 µM): 76.5% | viability, T/C (second compound 0.01 µM, first compound 10 µM): 49.5% | viability, T/C (second compound 0.0316 µM, first compound 0.0316 µM): 87.1% | viability, T/C (second compound 0.0316 µM, first compound 0.1 µM): 72.3% | viability, T/C (second compound 0.0316 µM, first compound 0.316 µM): 88% | viability, T/C (second compound 0.0316 µM, first compound 1 µM): 85.7% | viability, T/C (second compound 0.0316 µM, first compound 3.16 µM): 76.4% | viability, T/C (second compound 0.0316 µM, first compound 10 µM): 52.1% | viability, T/C (second compound 0.1 µM, first compound 0.0316 µM): 100% | viability, T/C (second compound 0.1 µM, first compound 0.1 µM): 97.6% | viability, T/C (second compound 0.1 µM, first compound 0.316 µM): 102% | viability, T/C (second compound 0.1 µM, first compound 1 µM): 82% | viability, T/C (second compound 0.1 µM, first compound 3.16 µM): 73.8% | viability, T/C (second compound 0.1 µM, first compound 10 µM): 49.3% | viability, T/C (second compound 0.316 µM, first compound 0.0316 µM): 98.5% | viability, T/C (second compound 0.316 µM, first compound 0.1 µM): 87.1% | viability, T/C (second compound 0.316 µM, first compound 0.316 µM): 78.4% | viability, T/C (second compound 0.316 µM, first compound 1 µM): 70.5% | viability, T/C (second compound 0.316 µM, first compound 3.16 µM): 82.8% | viability, T/C (second compound 0.316 µM, first compound 10 µM): 57.1% | viability, T/C (second compound 1 µM, first compound 0.0316 µM): 101% | viability, T/C (second compound 1 µM, first compound 0.1 µM): 90.5% | viability, T/C (second compound 1 µM, first compound 0.316 µM): 87.5% | viability, T/C (second compound 1 µM, first compound 1 µM): 84.7% | viability, T/C (second compound 1 µM, first compound 3.16 µM): 55% | viability, T/C (second compound 1 µM, first compound 10 µM): 41.3%
